Like-named read-outs stand apart in the source and are kept apart here.
Legend:
[1] = target: T1, human AR (Homo sapiens, UniProt P10275); assay: AR-mediated induction of PSA-luciferase reporter by R1881 in HeLa13 cells; assay type: cell-based; conditions: for inhibition at 1 µM / inhibition at 4 µM: read-out: % Inhibition of AR-Mediated Gene Induction
T1 construct: expressed in transfected cells; host or cells: HeLa13 (HeLa 13)
T1 sequence (P10275 1-920): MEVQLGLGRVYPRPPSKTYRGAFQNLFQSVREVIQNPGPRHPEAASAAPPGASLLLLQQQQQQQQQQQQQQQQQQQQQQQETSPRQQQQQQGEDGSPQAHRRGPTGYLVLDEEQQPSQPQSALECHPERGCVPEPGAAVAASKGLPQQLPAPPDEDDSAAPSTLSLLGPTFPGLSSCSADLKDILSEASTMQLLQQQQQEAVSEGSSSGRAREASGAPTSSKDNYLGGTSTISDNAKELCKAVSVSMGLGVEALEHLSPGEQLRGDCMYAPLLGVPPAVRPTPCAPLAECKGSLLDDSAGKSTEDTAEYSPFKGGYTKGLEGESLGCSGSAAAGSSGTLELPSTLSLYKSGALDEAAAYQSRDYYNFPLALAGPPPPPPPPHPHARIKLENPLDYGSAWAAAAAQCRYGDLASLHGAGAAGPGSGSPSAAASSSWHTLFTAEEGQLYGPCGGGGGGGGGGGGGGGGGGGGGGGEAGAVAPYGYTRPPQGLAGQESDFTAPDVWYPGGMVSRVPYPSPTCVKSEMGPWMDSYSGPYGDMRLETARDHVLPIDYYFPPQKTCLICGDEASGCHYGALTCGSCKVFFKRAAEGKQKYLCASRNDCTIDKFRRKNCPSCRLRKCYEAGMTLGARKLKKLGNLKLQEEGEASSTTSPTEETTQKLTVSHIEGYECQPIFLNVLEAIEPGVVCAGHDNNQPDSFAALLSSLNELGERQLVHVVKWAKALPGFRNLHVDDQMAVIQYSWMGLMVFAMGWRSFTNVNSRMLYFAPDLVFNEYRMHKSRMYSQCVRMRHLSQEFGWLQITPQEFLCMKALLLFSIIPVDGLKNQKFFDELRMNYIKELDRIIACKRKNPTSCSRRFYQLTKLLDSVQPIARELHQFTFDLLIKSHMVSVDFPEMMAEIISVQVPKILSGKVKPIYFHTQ
Source text: The engineered T47D breast cancer cell lines employed for the assessment of flavonoid activity on glucocorticoid receptor (GR) and progesterone receptor (PR) signaling permitted the facile quantitation transcription of both an endogenous gene and a stably integrated reporter gene. […] The T47D K5pLuc cell line responds to progestins via induction of a stably integrated cytokeratin 5-luciferase reporter gene. […] For assessment of the effect of the test compounds on androgen receptor (AR) signaling, we used the HeLa13 cell line engineered to stably express human AR and a PSA-luciferase reporter gene containing a 4× multimerized PSA upstream enhancer ARE1 linked to the E4 TATA box and luciferase gene.
Experiments testing the effect of flavonoid on androgen receptor-mediated transcription employed HeLa 13 cells maintained in MEM medium supplemented with 10% FBS, 0.5 mg/mL G418, 0.05 mg/mL Hygromycin B, […], and streptomycin (100 μg/mL). For reporter gene experiments, cells were replated at a 1:5 dilution in MEM medium with 5% charcoal-stripped FBS and the antibiotics mentioned above. The medium was changed the next day. After 48 h, the cells were washed with PBSE, detached with phenol red-free trypsin, pelleted, resuspended and plated in 96 well plates as above. Hormone and flavonoid treatments were performed as described above with the HeLa 13 medium and charcoal-stripped FBS. When treated with hormone, the synthetic androgen, R1881, was used at 1.0 nM. Hormone treatment was for 20 h at which time cells were harvested for assay of luciferase.
(§1) For all cell lines, cell harvesting and the luminescence assay for alkaline phosphatase and/or luciferase were performed as previously described in detail. Each condition was performed in quadruplicate. […] Percent inhibition is 100 minus the percent induction.

[2] = system: estrogen receptor (ER); assay: ER-mediated luciferase reporter induction in T47D KBluc cells; assay type: cell-based, human; conditions: relative to 1nM estradiol
Protocol: Experiments testing the effect of flavonoids on estrogen receptor-mediated transcription employed T47D KBluc cells. These cells were maintained in RPMI medium with 10% FBS, penicillin (100 U/mL), and streptomycin (100 μg/mL). For reporter gene experiments, cells were detached as above and replated at 50% confluency in phenol red-free RPMI media with 10% charcoal-stripped FBS and antibiotics (day one). All subsequent steps used phenol red-free medium and trypsin. On day three, the medium was replaced with fresh medium. On day five, cells were washed with PBSE, detached, resuspended, diluted, and replated in the phenol red-free RPMI with charcoal-stripped serum (50,000 cells per well as above).
as §1

Structure (SMILES) | inhibition at 1 µM ([1]; 1 µM, R1881 1.0 nM) | inhibition at 4 µM ([1]; 4 µM, R1881 1.0 nM) | % ER Induction ([2]; 1 µM) | % ER Induction ([2]; 4 µM) | inhibition at 1 µM [1] | inhibition at 4 µM [1] | IC50 ([1]; R1881, read-out: IC50, AR antagonism) | % Inhibition of AR-Mediated Gene Induction ([1]; 1 µM, R1881 1.0 nM) | % Inhibition of AR-Mediated Gene Induction ([1]; 4 µM, R1881 1.0 nM)
O=c1cc(-c2ccc(O)c(O)c2)oc2ccccc12 [3′,4′-dihydroxyflavone] | 40% | 75% | 0% | 13% |  |  |  |  | 
O=c1cc(-c2ccc(O)cc2)oc2ccccc12 [4′-hydroxyflavone] | 29% | 65% | 12% | 130% |  |  |  |  | 
O=c1cc(-c2ccc(O)c(O)c2)oc2cccc(O)c12 [5,3′,4′-trihydroxyflavone] |  |  | 0% | 13% | 29% | 91% |  |  | 
O=c1cc(-c2ccc(O)cc2)oc2cccc(O)c12 [5,4′-dihydroxyflavone] | 77% | 97% | 53% | 138% |  |  | ~0.5 µM |  | 
O=c1cc(-c2cc(O)c(O)c(O)c2)oc2cc(O)cc(O)c12 [5,7,3′4′,5′-pentahydroxyflavone] |  |  | 0% | −1% |  |  |  | −8% | 24%
O=C1CC(c2ccc(O)c(O)c2)Oc2cc(O)cc(O)c21 (stereo not shown) [5,7,3′,4′-tetrahydroxyflavanone] |  |  | 0% | 20% | 13% | 24% |  |  | 
O=c1cc(-c2ccc(O)c(O)c2)oc2cc(O)cc(O)c12 [5,7,3′,4′-tetrahydroxyflavone] | -20% | 67% | 3% | 80% |  |  |  |  | 
COc1ccc([C@@H]2CC(=O)c3c(O)cc(O)cc3O2)cc1O [5,7,3′-triOH, 4′methoxyflavanone] |  |  | 10% | 6% | -28% | -30% |  |  | 
O=C1CC(c2ccc(O)cc2)Oc2cc(O)cc(O)c21 (stereo not shown) [5,7,4′-trihydroxyflavanone] | -17% | 9% | 48% | 93% |  |  |  |  | 
O=c1c(-c2ccc(O)cc2)coc2cc(O)cc(O)c12 [5,7,4′-trihydroxyisoflavone] | 55% | 22% | 125% | 180% |  |  |  |  | 
O=c1cc(-c2ccccc2)oc2cc(O)cc(O)c12 [5,7-dihydroxyflavone] | -13% | 46% |  |  |  |  |  |  | 
O=c1cc(-c2ccc(O)cc2)oc2ccc(O)cc12 [6,4′-dihydroxyflavone] | 43% | 54% | 119% | 192% |  |  |  |  | 
O=c1cc(-c2ccc(O)c(O)c2)oc2cc(O)ccc12 [7,3′,4′-trihydroxyflavone] | -6% | 11% | 0% | 30% |  |  |  |  | 
O=c1cc(-c2ccc(O)cc2)oc2cc(O)ccc12 [7,4′-dihydroxyflavone] |  |  | 86% | 140% | -18% | -20% |  |  | 
O=c1c(-c2ccc(O)cc2)coc2cc(O)ccc12 [7,4′-dihydroxyisoflavone] |  | 24% | 125% |  |  |  |  |  | 
O=c1cc(-c2ccccc2)oc2ccccc12 [flavone] | -12% | 55% | 1% | 3% |  |  |  |  | 

— publication PMC11940309, “Endocrine-Disrupting Activities of Flavones on Steroid Receptors: Structural Requirements and Synthesis of Novel Flavone with Improved Estrogenic Activity” (Biomedicines, 2025)
